Laboratory results taken from ChEMBL document CHEMBL1629650 (2009).
≈ marks a conversion by molar mass, not a printed value.

Legend:
Assay type in all cases: functional
[1] = test system: Mycobacterium tuberculosis; assay: Antibacterial activity against Mycobacterium tuberculosis Rv44 harboring embB ATG-ATA (M306I) mutation in embB by modified conventional agar proportion method
[2] = test system: Mycobacterium tuberculosis; assay: Antibacterial activity against Mycobacterium tuberculosis B64 harboring embB ATG-GTG (M306V) mutation in embB by modified conventional agar proportion method
[3] = test system: Mycobacterium tuberculosis; assay: Antibacterial activity against Mycobacterium tuberculosis B56 harboring embB ATG-GTG (M306V) mutation in embB by modified conventional agar proportion method
[4] = test system: Mycobacterium tuberculosis; assay: Antibacterial activity against Mycobacterium tuberculosis B52 harboring embB ATG-GTG (M306V) mutation in embB by modified conventional agar proportion method
[5] = test system: Mycobacterium tuberculosis; assay: Antibacterial activity against Mycobacterium tuberculosis Rv23 harboring embB ATG-GTG (M306V) mutation in embB by modified conventional agar proportion method
[6] = test system: Mycobacterium tuberculosis; assay: Antibacterial activity against Mycobacterium tuberculosis Rv17 harboring embB ATG-GTG (M306V) mutation in embB by modified conventional agar proportion method
[7] = test system: Mycobacterium tuberculosis; assay: Antibacterial activity against Mycobacterium tuberculosis Rv8 harboring embB ATG-GTG (M306V) mutation in embB by modified conventional agar proportion method
[8] = test system: Mycobacterium tuberculosis; assay: Antibacterial activity against Mycobacterium tuberculosis B59 harboring embB ATG-GTG (M306V) mutation in embB by modified conventional agar proportion method
[9] = test system: Mycobacterium tuberculosis; assay: Antibacterial activity against Mycobacterium tuberculosis B55 harboring embB ATG-GTG (M306V) mutation in embB by modified conventional agar proportion method
[10] = test system: Mycobacterium tuberculosis; assay: Antibacterial activity against Mycobacterium tuberculosis Rv18 harboring embB ATG-GTG (M306V) mutation in embB by modified conventional agar proportion method
[11] = test system: Mycobacterium tuberculosis; assay: Antibacterial activity against Mycobacterium tuberculosis B74 harboring embB GAC-GGC (D300G) mutation in embB by modified conventional agar proportion method
[12] = test system: Mycobacterium tuberculosis; assay: Antibacterial activity against Mycobacterium tuberculosis Rv7 harboring embB ATG-GTG (M306V) mutation in embB by modified conventional agar proportion method
[13] = test system: Mycobacterium tuberculosis; assay: Antibacterial activity against Mycobacterium tuberculosis B54 harboring embB ATG-ATA (M306I) mutation in embB by modified conventional agar proportion method
[14] = test system: Mycobacterium tuberculosis; assay: Antibacterial activity against Mycobacterium tuberculosis B85 harboring embB ATG-ATA (M306I) mutation in embB by modified conventional agar proportion method
[15] = test system: Mycobacterium tuberculosis; assay: Antibacterial activity against Mycobacterium tuberculosis B95 harboring embB ATG-ATA (M306I) mutation in embB by modified conventional agar proportion method
[16] = test system: Mycobacterium tuberculosis; assay: Antibacterial activity against Mycobacterium tuberculosis B84 harboring embB ATG-ATC (M306I) mutation in embB by modified conventional agar proportion method
[17] = test system: Mycobacterium tuberculosis; assay: Antibacterial activity against Mycobacterium tuberculosis B97 harboring embB ATG-ATC (M306I) mutation in embB by modified conventional agar proportion method
[18] = test system: Mycobacterium tuberculosis; assay: Antibacterial activity against Mycobacterium tuberculosis B70 harboring embB ATG-ATC (M306I) mutation in embB by modified conventional agar proportion method
[19] = test system: Mycobacterium tuberculosis; assay: Antibacterial activity against Mycobacterium tuberculosis Rv11 harboring embB ATG-CTG (M306L) mutation in embB by modified conventional agar proportion method
[20] = test system: Mycobacterium tuberculosis; assay: Antibacterial activity against Mycobacterium tuberculosis B51 harboring embB ATG-ACG (M306T) mutation in embB by modified conventional agar proportion method
[21] = test system: Mycobacterium tuberculosis; assay: Antibacterial activity against Mycobacterium tuberculosis B99 harboring embB CGC-CAC (R321H) mutation in embB by modified conventional agar proportion method
[22] = test system: Mycobacterium tuberculosis; assay: Antibacterial activity against Mycobacterium tuberculosis Rv39 harboring embB GGC-CGC (G324R) mutation in embB by modified conventional agar proportion method
[23] = test system: Mycobacterium tuberculosis; assay: Antibacterial activity against Mycobacterium tuberculosis B79 harboring embB GGC-CGC (G324R) mutation in embB by modified conventional agar proportion method
[24] = test system: Mycobacterium tuberculosis; assay: Antibacterial activity against Mycobacterium tuberculosis Rv21 harboring embB GAT-TAT (D328Y) mutation in embB by modified conventional agar proportion method
[25] = test system: Mycobacterium tuberculosis; assay: Antibacterial activity against Mycobacterium tuberculosis Rv31 harboring embB GAT-TAT (D328Y) mutation in embB by modified conventional agar proportion method
[26] = test system: Mycobacterium tuberculosis; assay: Antibacterial activity against Mycobacterium tuberculosis B53 harboring embB GAT-TAT (D328Y) mutation in embB by modified conventional agar proportion method
[27] = test system: Mycobacterium tuberculosis; assay: Antibacterial activity against Mycobacterium tuberculosis B96 harboring embB GAT-TAT (D328Y) mutation in embB by modified conventional agar proportion method
[28] = test system: Mycobacterium tuberculosis; assay: Antibacterial activity against Mycobacterium tuberculosis B92 harboring embB GAC-GCC (D354A) mutation in embB by modified conventional agar proportion method
[29] = test system: Mycobacterium tuberculosis; assay: Antibacterial activity against HYG cassette-negative EMB-resistant Mycobacterium tuberculosis Rv8 harboring embB M306V mutant gene by modified conventional agar proportion method
[30] = test system: Mycobacterium tuberculosis; assay: Antibacterial activity against HYG cassette-positive Mycobacterium tuberculosis Rv8102 harboring embB M306V mutant gene by modified conventional agar proportion method
[31] = test system: Mycobacterium tuberculosis; assay: Antibacterial activity against HYG cassette-negative EMB-resistant Mycobacterium tuberculosis Rv44 harboring embB M306I mutant gene by modified conventional agar proportion method
[32] = test system: Mycobacterium tuberculosis; assay: Antibacterial activity against HYG cassette-positive Mycobacterium tuberculosis Rv4402 harboring embB M306I mutant gene by modified conventional agar proportion method
[33] = test system: Mycobacterium tuberculosis; assay: Antibacterial activity against HYG cassette-negative EMB-resistant Mycobacterium tuberculosis B52 harboring embB M306V mutant gene by modified conventional agar proportion method
[34] = test system: Mycobacterium tuberculosis; assay: Antibacterial activity against HYG cassette-positive Mycobacterium tuberculosis B5202 harboring embB M306V mutant gene by modified conventional agar proportion method
[35] = test system: Mycobacterium tuberculosis; assay: Antibacterial activity against HYG cassette-negative EMB-resistant Mycobacterium tuberculosis B54 harboring embB M306I mutant gene by modified conventional agar proportion method
[36] = test system: Mycobacterium tuberculosis; assay: Antibacterial activity against HYG cassette-positive Mycobacterium tuberculosis B5402 harboring embB M306I mutant gene by modified conventional agar proportion method
[37] = test system: Mycobacterium tuberculosis; assay: Antibacterial activity against HYG cassette-positive Mycobacterium tuberculosis RvAS1 harboring embB M306V mutant gene by modified conventional agar proportion method
[38] = test system: Mycobacterium tuberculosis; assay: Antibacterial activity against HYG cassette-positive Mycobacterium tuberculosis RvAS2 harboring embB M306V mutant gene by modified conventional agar proportion method
[39] = test system: Mycobacterium tuberculosis; assay: Antibacterial activity against HYG cassette-positive Mycobacterium tuberculosis RvAS3 harboring embB M306I mutant gene by modified conventional agar proportion method
[40] = test system: Mycobacterium tuberculosis; assay: Antibacterial activity against HYG cassette-positive Mycobacterium tuberculosis RvAS4 harboring embB M306I mutant gene by modified conventional agar proportion method
[41] = test system: Mycobacterium tuberculosis; assay: Antibacterial activity against HYG cassette-positive Mycobacterium tuberculosis BAS5 harboring embB M306V mutant gene by modified conventional agar proportion method
[42] = test system: Mycobacterium tuberculosis; assay: Antibacterial activity against HYG cassette-positive Mycobacterium tuberculosis BAS6 harboring embB M306V mutant gene by modified conventional agar proportion method
[43] = test system: Mycobacterium tuberculosis; assay: Antibacterial activity against HYG cassette-positive Mycobacterium tuberculosis BAS7 harboring embB M306I mutant gene by modified conventional agar proportion method
[44] = test system: Mycobacterium tuberculosis; assay: Antibacterial activity against HYG cassette-positive Mycobacterium tuberculosis BAS8 harboring embB M306I mutant gene by modified conventional agar proportion method

## CC[C@@H](CO)NCCN[C@@H](CC)CO [ETHAMBUTOL]
[1]
  MIC: 20 µg/mL (≈ 97.9 µM)
[2]
  MIC: 20 µg/mL (≈ 97.9 µM)
[3]
  MIC: 20 µg/mL (≈ 97.9 µM)
[4]
  MIC: 20 µg/mL (≈ 97.9 µM)
[5]
  MIC: 20 µg/mL (≈ 97.9 µM)
[6]
  MIC: 20 µg/mL (≈ 97.9 µM)
[7]
  MIC: 20 µg/mL (≈ 97.9 µM)
[8]
  MIC: 20 µg/mL (≈ 97.9 µM)
[9]
  MIC: 20 µg/mL (≈ 97.9 µM)
[10]
  MIC: 20 µg/mL (≈ 97.9 µM)
[11]
  MIC: 10 µg/mL (≈ 48.9 µM)
[12]
  MIC: 20 µg/mL (≈ 97.9 µM)
[13]
  MIC: 20 µg/mL (≈ 97.9 µM)
[14]
  MIC: 20 µg/mL (≈ 97.9 µM)
[15]
  MIC: 20 µg/mL (≈ 97.9 µM)
[16]
  MIC: 20 µg/mL (≈ 97.9 µM)
[17]
  MIC: 20 µg/mL (≈ 97.9 µM)
[18]
  MIC: 40 µg/mL (≈ 196 µM)
[19]
  MIC: 20 µg/mL (≈ 97.9 µM)
[20]
  MIC: 20 µg/mL (≈ 97.9 µM)
[21]
  MIC: 10 µg/mL (≈ 48.9 µM)
[22]
  MIC: 20 µg/mL (≈ 97.9 µM)
[23]
  MIC: 20 µg/mL (≈ 97.9 µM)
[24]
  MIC: 20 µg/mL (≈ 97.9 µM)
[25]
  MIC: 20 µg/mL (≈ 97.9 µM)
[26]
  MIC: 20 µg/mL (≈ 97.9 µM)
[27]
  MIC: 20 µg/mL (≈ 97.9 µM)
[28]
  MIC: 20 µg/mL (≈ 97.9 µM)
[29]
  MIC: 20 µg/mL (≈ 97.9 µM)
[30]
  MIC: 20 µg/mL (≈ 97.9 µM)
[31]
  MIC: 20 µg/mL (≈ 97.9 µM)
[32]
  MIC: 20 µg/mL (≈ 97.9 µM)
[33]
  MIC: 20 µg/mL (≈ 97.9 µM)
[34]
  MIC: 20 µg/mL (≈ 97.9 µM)
[35]
  MIC: 20 µg/mL (≈ 97.9 µM)
[36]
  MIC: 20 µg/mL (≈ 97.9 µM)
[37]
  MIC: 20 µg/mL (≈ 97.9 µM)
[38]
  MIC: 20 µg/mL (≈ 97.9 µM)
[39]
  MIC: 10 µg/mL (≈ 48.9 µM)
[40]
  MIC: 10 µg/mL (≈ 48.9 µM)
[41]
  MIC: 20 µg/mL (≈ 97.9 µM)
[42]
  MIC: 20 µg/mL (≈ 97.9 µM)
[43]
  MIC: 10 µg/mL (≈ 48.9 µM)
[44]
  MIC: 10 µg/mL (≈ 48.9 µM)
